Molecular target: T1, aggregated amyloid beta (Aβ1-42) (Homo sapiens, UniProt P05067)
T1 construct: Aβ1-42 peptide was aggregated in vitro using the following procedure
Test: In vitro binding studies of compounds with amyloid beta: fluorescent emission spectra with and without aggregated Aβ
Details: fold increase at maximum emission (compound+Aβ/compound), 4 μM compound, 5 μM aggregated Aβ in 1×PBS; for Fold Increase @ 450 nm: excitation 450 nm; for Fold Increase @ 488 nm: excitation 488 nm
Protocol: The fluorescent properties and emission spectra of compounds described herein with aggregated amyloid beta (Aβ1-42) were characterized as described below.
Emission spectra for compounds described herein were collected after incubation of the compounds with and without aggregated Aβ at specific excitation wavelengths (450 nm and 488 nm) employed in standard ocular imaging equipment.
Aβ1-42 peptide was aggregated in vitro using the following procedure. Aβ42 (HFIP) was removed from the freezer and allowed to warm to room temperature, then 1 mg of Aβ42 was dissolved in 215 μL of ddH2O for about 10-20 mins at room temperature. To the resulting solution, 2 mL of ddH2O was added to provide a 100 μM stock solution. A 100 μL aliquot was sampled and frozen (non-aggregated sample). The tubes were placed in a thermoshaker at 350 rpm for 3 days. Care was taken to avoid generating bubbles. Aβ aggregation was confirmed by measuring binding to Thioflavin T (ThT). Aggregated Aβ1-42 peptide was then portioned into 150 μL aliquots and stored at −80° C.
The fluorescent emission spectra were measured as follows to determine binding of Aβ to test compounds described herein. The Shimadzu fluorimeter was turned on and allowed to warm up for ˜60 minutes. The test compounds were then removed from the −20° C. freezer and were allowed to warm to room temperature. The 100 μM aggregated Aβ solution was then removed from the −80° C. freezer and also allowed to warm to room temperature. 250 μM solutions of each test compound in DMSO were then prepared. These were then used to prepare 4 μM solutions of each test compound, with and without 5 μM aggregated Aβ in 1×PBS, in triplicates. Using a cuvette, the fluorescent emission spectra were measured for each test compound+Aβ solution, employing a DMSO/PBS solution as a blank. Each sample was tested at an excitation of 450 nm and 488 nm. Fluorescent emission spectra were then collected for each 4 μM test compound solution alone. The resulting data were used to plot intensity vs. wavelength for each emission scan.

T1 sequence (P05067 672-713 limits assumed): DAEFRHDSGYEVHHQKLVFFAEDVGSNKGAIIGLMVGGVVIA

Fold Increase @ 450 nm	Fold Increase @ 488 nm	Structure (SMILES)
15.28	18.53	N#C/C(=C\c1ccc2cc(N3CCCCC3)ccc2c1)C(=O)NCC(O)CO (centres unmarked) [Compound 4, (E)-2-cyano-N-(2,3-dihydroxypropyl)-3-(6-(piperidin-1-yl)naphthalen-2-yl)acrylamide, reference compound]
18.18	22.81	N#C/C(=C\c1ccc2cc(N3CCCC3)ccc2c1)C(=O)NCC(O)CO (centres unmarked) [Compound 5, (E)-2-cyano-N-(2,3-dihydroxypropyl)-3-(6-(pyrrolidin-1-yl)naphthalen-2-yl)acrylamide]
7.12	17.18	N#C/C(=C\c1ccc2ccccc2c1N1CCCCC1)C(=O)NCC(O)CO (centres unmarked) [Compound 6, (E)-2-cyano-N-(2,3-dihydroxypropyl)-3-(1-(piperidin-1-yl)naphthalen-2-yl)acrylamide]
4.31	2.84	N#C/C(=C\c1ccc2ccccc2c1N1CCC1)C(=O)NCC(O)CO (centres unmarked) [Compound 7, (E)-3-(1-(azetidin-1-yl)naphthalen-2-yl)-2-cyano-N-(2,3-dihydroxypropyl)acrylamide]
9.48	19.60	N#C/C(=C\c1ccc2cc(N3CCCCC3)ccc2c1)C(=O)CC[C@H](O)CO [Compound 8, (S,E)-6,7-dihydroxy-3-oxo-2-((6-(piperidin-1-yl)naphthalen-2-yl)methylene)heptanenitrile]
10.16	9.11	N#C/C(=C\c1ccc2cc(N3CCCCC3)ccc2c1)C(=O)CCCOCCOCCO [Compound 9, (E)-6-(2-(2-hydroxyethoxy)ethoxy)-3-oxo-2-((6-(piperidin-1-yl)naphthalen-2-yl)methylene)hexanenitrile]
21.98	19.13	N#C/C(=C\c1ccc2cc(N3CCC3)ccc2c1)C(=O)NCC(O)CO (centres unmarked) [Compound 10, (E)-3-(6-(azetidin-1-yl)naphthalen-2-yl)-2-cyano-N-(2,3-dihydroxypropyl)acrylamide]

Source: patent US20240325572A1, “N-HETEROCYCLYL SUBSTITUTED 2-CYANO-3-(NAPHTHALEN-2-YL)ACRYLAMIDE DERIVATIVES AS FLUOROPHORS FOR DETECTION OF AMYLOID AND AMYLOID-LIKE PROTEINS FOR DIAGNOSIS OF NEURODEGENERATIVE DISORDERS” (Amydis, Inc., priority 2021, published 2024)
